# Key:
# human ADAMTS-5 = human ADAMTS-5 (Homo sapiens (Human), UniProt Q9UNA0); details: read-out: hADAMTS-5 potency IC50
# rnADAMTS-5 (1-564-6H) = rnADAMTS-5 (1-564-6H) (Rattus norvegicus, UniProt Q6TY19); details: read-out: Rat ADAMTS-5 potency IC50
# human MMP13 = human MMP13 (Homo sapiens (Human), UniProt P45452); details: read-out: hMMP-13 potency IC50
# Protocol: Human MMP13 is preactivated by incubated the enzyme in the same buffer complemented with 1 mM freshly prepared p-Aminophenylmercuric acetate (AMPA) for 1 hour at 37° C.
# human TACE = human TACE (Homo sapiens (Human), UniProt P78536); details: read-out: TACE potency IC50
# human TACE, sequence (P78536 whole entry, looked up, change not shown): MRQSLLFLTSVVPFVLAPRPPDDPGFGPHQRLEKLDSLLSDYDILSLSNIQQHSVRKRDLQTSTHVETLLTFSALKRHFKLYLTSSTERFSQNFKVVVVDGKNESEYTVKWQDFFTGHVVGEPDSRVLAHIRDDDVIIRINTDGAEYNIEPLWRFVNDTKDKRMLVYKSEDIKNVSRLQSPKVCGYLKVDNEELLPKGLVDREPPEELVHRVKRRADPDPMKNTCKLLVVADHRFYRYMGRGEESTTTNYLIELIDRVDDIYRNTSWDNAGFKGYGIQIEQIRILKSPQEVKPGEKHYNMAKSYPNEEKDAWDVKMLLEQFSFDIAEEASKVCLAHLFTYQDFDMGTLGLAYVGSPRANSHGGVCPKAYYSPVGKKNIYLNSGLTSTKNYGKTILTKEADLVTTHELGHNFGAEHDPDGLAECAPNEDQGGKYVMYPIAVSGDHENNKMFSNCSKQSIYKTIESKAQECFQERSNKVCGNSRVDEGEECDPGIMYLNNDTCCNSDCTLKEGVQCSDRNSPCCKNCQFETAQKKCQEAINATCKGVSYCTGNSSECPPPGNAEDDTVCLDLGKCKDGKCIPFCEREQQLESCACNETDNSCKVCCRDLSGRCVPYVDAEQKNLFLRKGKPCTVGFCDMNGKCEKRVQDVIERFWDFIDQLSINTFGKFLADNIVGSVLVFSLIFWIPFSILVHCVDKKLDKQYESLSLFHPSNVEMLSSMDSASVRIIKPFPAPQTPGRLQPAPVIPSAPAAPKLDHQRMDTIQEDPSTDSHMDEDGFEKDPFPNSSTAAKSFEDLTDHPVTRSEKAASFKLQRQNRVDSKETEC
# human ADAMTS-5, sequence (Q9UNA0 262-930): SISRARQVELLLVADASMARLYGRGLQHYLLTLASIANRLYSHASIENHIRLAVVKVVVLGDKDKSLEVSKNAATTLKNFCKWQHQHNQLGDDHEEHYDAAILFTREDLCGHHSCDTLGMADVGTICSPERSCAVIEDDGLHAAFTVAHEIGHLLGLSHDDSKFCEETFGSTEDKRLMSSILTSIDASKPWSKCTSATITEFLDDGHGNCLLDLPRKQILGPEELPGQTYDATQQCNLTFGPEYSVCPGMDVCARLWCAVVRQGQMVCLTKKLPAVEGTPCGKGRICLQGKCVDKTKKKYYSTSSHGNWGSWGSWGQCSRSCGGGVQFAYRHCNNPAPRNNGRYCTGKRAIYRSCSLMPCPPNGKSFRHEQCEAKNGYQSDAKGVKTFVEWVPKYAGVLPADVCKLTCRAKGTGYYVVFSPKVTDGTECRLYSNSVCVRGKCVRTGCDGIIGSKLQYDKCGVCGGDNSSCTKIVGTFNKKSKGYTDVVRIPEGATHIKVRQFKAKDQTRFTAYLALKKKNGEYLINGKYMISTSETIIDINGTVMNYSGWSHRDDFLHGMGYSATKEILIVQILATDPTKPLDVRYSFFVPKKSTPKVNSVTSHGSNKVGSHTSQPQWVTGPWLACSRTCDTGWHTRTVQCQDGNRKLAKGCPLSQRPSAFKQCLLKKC
SMILES,IC50 (human ADAMTS-5) [nM],IC50 (rnADAMTS-5 (1-564-6H)) [nM],IC50 (human MMP13) [µM],IC50 (human TACE) [µM]
"Cc1ccccc1N1CCN(C(=O)CCC2(c3cccnc3)NC(=O)NC2=O)CC1 (stereo not shown) [compound 64, 5-[3-[4-(o-tolyl)piperazin-1-yl]-3-oxo-propyl]-5-(3-pyridyl)imidazolidine-2,4-dine]",125,165,> 20,3.14
"Cc1ccc(Cl)cc1N1CCN(C(=O)CCC2(c3ccccn3)NC(=O)NC2=O)CC1 (stereo not shown) [compound 65, 5-[3-[4-(5-chloro-2-methyl-phenyl)piperazin-1-yl]-3-oxo-propyl]-5-(2-pyridyl)imidazolidine-2,4-dione]",50,65,> 20,0.056
"CC1(CCC(=O)N2CCN(c3ccc(F)cc3)CC2)NC(=O)NC1=O (stereo not shown) [compound 66, 5-[3-[4-(4-fluorophenyl)piperazin-1-yl]-3-oxo-propyl]-5-methyl-imidazolidine-2,4-dione]",1310,1370,> 20,> 20
"O=C1NC(=O)C(CCC(=O)N2CCN(c3cccc(Cl)c3)CC2)(C2CCC2)N1 (stereo not shown) [compound 70, 5-[3-[4-(3-chlorophenyl)piperazin-1-yl]-3-oxo-propyl]-5-cyclobutyl-imidazolidine-2,4-dione]",253,205,> 4,> 20
"Cc1ccc(C2(CCC(=O)N3CCN(c4cccc(Cl)c4)CC3)NC(=O)NC2=O)cc1 (stereo not shown) [compound 76, 5-[3-[4-(3-chlorophenyl)piperazin-1-yl]-3-oxo-propyl]-5-(p-toy)imidazolidine-2,4-dione]",91,102,2.06,1.78
"COc1ccc(C2(CCC(=O)N3CCN(c4cccc(Cl)c4)CC3)NC(=O)NC2=O)cc1 (stereo not shown) [compound 78, 5-[3-[4-(3-chlorophenyl)piperazin-1-yl]-3-oxo-propyl]-5-(4-methoxyphenyl)imidazolidine-2,4-dione]",79,96,2.1,2.66
"COc1ccc(C2(CCC(=O)N3CCN(c4cc(Cl)ccc4C)CC3)NC(=O)NC2=O)cc1 (stereo not shown) [compound 79, 5-[3-[4-(5-chloro-2-methyl-phenyl)piperazin-1-yl]-3-oxo-propyl]-5-(4-methoxyphenyl)imidazolidine-2,4-dione]",53,53,> 20,0.277
"CN(C)CCOc1ccc(C2(CCC(=O)N3CCN(c4cccc(Cl)c4)CC3)NC(=O)NC2=O)cc1 (stereo not shown) [compound 80, 5-[3-[4-(3-chlorophenyl)piperazin-1-yl]-3-oxo-propyl]-5-[4-(2-dimethylaminoethyloxy)phenyl]imidazolidine-2,4-dione]",257,429,3.79,> 20
"CC1(CCC(=O)N2CCN(c3cncc(Cl)c3)CC2)NC(=O)NC1=O (stereo not shown) [compound 85, 5-[3-[4-(5-chloro-3-pyridyl)piperazin-1-yl]-3-oxo-propyl]-5-methyl-imidazolidine-2,4-dione]",1270,1110,> 20,> 4
"CC1(CCC(=O)N2CCN(c3cncc(Br)c3)CC2)NC(=O)NC1=O (stereo not shown) [compound 86, 5-[3-[4-(5-bromo-3-pyridyl)piperazin-1-yl]-3-oxo-propyl]-5-methyl-imidazolidine-2,4-dione]",1700,1790,> 20,> 4
"Cc1ccc(C)c(N2CCN(C(=O)CCC3(c4ccccn4)NC(=O)NC3=O)CC2)c1 (stereo not shown) [compound 87, 5-[3-[4-(2,5-dimethylphenyl)piperazin-1-yl]-3-oxo-propyl]-5-(2-pyridyl)imidazolidine-2,4-dione]",137,113,> 20,0.12
"Cc1ccc(C)c(N2CCN(C(=O)CCC3(c4cccnc4)NC(=O)NC3=O)CC2)c1 (stereo not shown) [compound 88, 5-[3-[4-(2,5-dimethylphenyl)piperazin-1-yl]-3-oxo-propyl]-5-(3-pyridyl)imidazolidine-2,4-dione]",119,119,> 20,0.211
"O=C1NC(=O)C(CCC(=O)N2CCN(c3ccc(F)c(F)c3)CC2)(c2cccnc2)N1 (stereo not shown) [compound 90, 5-[3-[4-(3,4-difluorophenyl)piperazin-1-yl]-3-oxo-propyl]-5-(3-pyridyl)imidazolidine-2,4-dione]",85,70,1.21,> 4
"O=C1NC(=O)C(CCC(=O)N2CCN(c3ccc(F)c(Cl)c3)CC2)(c2cccnc2)N1 (stereo not shown) [compound 91, 5-[3-[4-(3-chloro-4-fluoro-phenyl)piperazin-1-yl]-3-oxo-propyl]-5-(3-pyridyl)imidazolidine-2,4-dione]",95,69,1.68,> 4
"Cc1ccc(F)cc1N1CCN(C(=O)CCC2(c3cccnc3)NC(=O)NC2=O)CC1 (stereo not shown) [compound 92, 5-[3-[4-(5-fluoro-2-methyl-phenyl)piperazin-1-yl]-3-oxo-propyl]-5-(3-pyridyl)imidazolidine-2,4-dione]",63,64,> 20,1.05
"Cc1cc(Cl)c(F)cc1N1CCN(C(=O)CCC2(C)NC(=O)NC2=O)CC1 (stereo not shown) [compound 93, 5-[3-[4-(4-chloro-5-fluoro-2-methyl-phenyl)piperazin-1-yl]-3-oxo-propyl]-5-methyl-imidazolidine-2,4-dione]",> 4080,> 4000,> 20,> 3.53
"Cc1cc(F)c(F)cc1N1CCN(C(=O)CCC2(C)NC(=O)NC2=O)CC1 (stereo not shown) [compound 94, 5-[3-[4-(4,5-difluoro-2-methyl-phenyl)piperazin-1-yl]-3-oxo-propyl]-5-methyl-imidazolidine-2,4-dione]",2130,3020,> 20,> 4
"O=C1NC(=O)C(CCC(=O)N2CCN(c3ccc(F)c(F)c3)CC2)(c2ccccn2)N1 (stereo not shown) [compound 95, 5-[3-[4-(3,4-difluorophenyl)piperazin-1-yl]-3-oxo-propyl]-5-(2-pyridyl)imidazolidine-2,4-dione]",48,40,2.2,> 4
"O=C1NC(=O)C(CCC(=O)N2CCN(c3ccc(F)c(Cl)c3)CC2)(c2ccccn2)N1 (stereo not shown) [compound 96, 5-[3-[4-(3-chloro-4-fluoro-phenyl)piperazin-1-yl]-3-oxo-propyl]-5-(2-pyridyl)imidazolidine-2,4-dione]",49,57,1.06,3.59
"Cc1c(F)cccc1N1CCN(C(=O)CCC2(c3cccnc3)NC(=O)NC2=O)CC1 (stereo not shown) [compound 97, 5-[3-[4-(3-fluoro-2-methyl-phenyl)piperazin-1-yl]-3-oxo-propyl]-5-(3-pyridyl)imidazolidine-2,4-dione]",168,148,> 20,> 4
"Cc1c(F)cccc1N1CCN(C(=O)CCC2(c3ccccn3)NC(=O)NC2=O)CC1 (stereo not shown) [compound 100, 5-[3-[4-(3-fluoro-2-methyl-phenyl)piperazin-1-yl]-3-oxo-propyl]-5-(2-pyridyl)imidazolidine-2,4-dione]",185,163,> 20,> 4
"O=C1NC(=O)C(CCC(=O)N2CCN(c3cccc(F)c3)CC2)(c2ccccn2)N1 (stereo not shown) [compound 103, 5-[3-[4-(3-fluorophenyl)piperazin-1-yl]-3-oxo-propyl]-5-(2-pyridyl)imidazolidine-2,4-dione]",28,24,2,4.1
"Cc1ccc(F)cc1N1CCN(C(=O)CCC2(c3ccccn3)NC(=O)NC2=O)CC1 (stereo not shown) [compound 104, 5-[3-[4-(5-fluoro-2-methyl-phenyl)piperazin-1-yl]-3-oxo-propyl]-5-(2-pyridyl)imidazolidine-2,4-dione]",43,41,> 20,0.461
"CC1CN(C(=O)CCC2(c3cccnc3)NC(=O)NC2=O)CCN1c1ccccc1 (stereo not shown) [compound 105, 5-[3-(3-methyl-4-phenyl-piperazin-1-yl)-3-oxo-propyl]-5-(3-pyridyl)imidazolidine-2,4-dione]",226,162,> 20,> 20
"CC1CN(C(=O)CCC2(C3CC3)NC(=O)NC2=O)CCN1c1ccccc1 (stereo not shown) [compound 106, 5-cyclopropyl-5-[3-(3-methyl-4-phenyl-piperazin-1-yl)-3-oxo-propyl]imidazolidine-2,4-dione]",233,222,> 20,> 20
"CC(C)(C)C1(CCC(=O)N2CCN(c3cccc(Cl)c3)CC2)NC(=O)NC1=O (stereo not shown) [compound 107, 5-tert-butyl-5-[3-[4-(3-chlorophenyl)piperazin-1-yl]-3-oxo-propyl]imidazolidine-2,4-dione]",172,147,> 20,> 4
"O=C1NC(=O)C(CCC(=O)N2CCN(c3cccc(Cl)c3)CC2)(C2CCCC2)N1 (stereo not shown) [compound 109, 5-[3-[4-(3-chlorophenyl)piperazin-1-yl]-3-oxo-propyl]-5-cyclopentyl-imidazolidine-2,4-dione]",261,182,> 4,5.26
"O=C1NC(=O)C(CCC(=O)N2CCN(c3cc(Cl)cc(Cl)c3)CC2)(c2cccnc2)N1 (stereo not shown) [compound 111, 5-[3-[4-(3,5-dichlorophenyl)piperazin-1-yl]-3-oxo-propyl]-5-(3-pyridyl)imidazolidine-2,4-dione]",42,46,> 20,0.963

# Source: patent publication US9926281B2 (priority 2014, dated 2018)
